# Test results as given in patent EP0705258B1, “AZOLYL-CYCLIC AMINE DERIVATIVES WITH IMMUNOMODULATORY ACTIVITY” (Knoll AG, priority 1993, dated 1995).
# Tests used:
# [1] = test system: lymphocyte proliferation (BALB/c responder and mitomycin C treated C57BL/6 stimulator spleen cells); assay: Mixed Lymphocyte Reaction (Test A), one-way MLR, tritiated thymidine incorporation; assay type: cell-based, mice; conditions: Mus musculus; concentration causing 50% inhibition of lymphocyte proliferation, by linear interpolation; ≤ = active at this concentration but not tested at lower doses
# Experimental: A mixed lymphocyte reaction (MLR) occurs when lymphocytes from two genetically dissimilar individuals, or inbred strains of mice are cultured together. An MLR results in the activation and proliferation of lymphocytes, which is measured by the incorporation of radiolabelled thymidine into the cellular DNA synthesised during cell division. A 'one-way' MLR is used to determine the immunosuppressive activity of test compounds in vitro. In this reaction one population of spleen cells serves as the stimulator cells and is treated with mitomycin C to prevent cell division. Spleen cells from a second allogeneic population (responder cells) are untreated and when mixed with the stimulator cells are able to undergo division which is measured. The degree of proliferation is measured in the presence and absence of test compound to assess the immunosuppressive activity of the compound.
# The techniques for carrying out lymphocyte proliferation assays including MLRs are well known, eg Bradley, pages 156-166, in Mishell and Shiigi, Eds. Selected Methods in Cellular Immunology (Freeman, San Francisco, 1980); and Battisto et al, methods in Enzymology 1987; 150: 83-91. Various slight modifications of these techniques are in use and that used herein is described in Gibb, Webber and Bowen, J Immunological Methods 1985; 81: 107-113.
# Cell suspensions obtained from the spleens of female BALB/c and C57BL/6 strain mice of between 6 and 9 weeks of age were used as sources of responder and stimulator cells respectively. The mice were killed using a rising concentration of CO2 and the spleens removed aseptically and teased using a scalpel and forceps to produce a single cell suspension in Hanks balanced salt solution (HBSS). The suspensions were filtered through cell strainers (Falcon), sedimented by centrifugation and resuspended in Tris-buffered ammonium chloride pH 7.2 (medium D) to lyse the erythrocytes. The cells were sedimented again and washed twice in HBSS before resuspending in complete RPMI 1640 tissue culture medium (medium E). The C57BL/6 cells were resuspended to 9 mls per spleen and a solution of mitomycin C at 400 µg/ml in medium E added to give a final concentration of 40 µg/ml. After incubation of the C57BL/6 cells at 37°C for 30 minutes in an atmosphere of 5% CO2 and 95% air, the cells were sedimented and washed 3 times in medium E. Both cell suspensions were diluted in medium E to 5 x 10^6 cells/ml. 100µl of each of the responder and stimulator cell suspensions were aliquoted into the wells of 96 well flat bottom microtitre plates containing 50 µl of test compound at an appropriate dilution (initially 50 µM diluted in medium E from a stock solution at 100 mM in dimethyl sulphoxide) giving a final test compound concentration of 10 µM (final dilution). Compounds active at this concentration were tested at further final dilution of 1 µM, 0.1 µM and 0.01 µM and 0.001 µM to determine the concentration of test compound which causes 50% inhibition of the immune response (IC50). After four days of culture at 37°C in a humidified atmosphere of 5% CO2 and 95% air, 1 µCi of tritiated thymidine in 20 µl of medium E was added to each well and the plates incubated for a further 24 hours. Cells were then harvested onto Inotech G7 glass fibre filter mats using an Inotech cell harvester. The filters were transferred to vials to which 2 ml of Packard Emulsifier-Safe scintillation fluid was added and the radioactivity from the incorporated thymidine was counted in a Packard liquid scintillation counter. The counts per minute (CPM) reflect the degree of lymphocyte proliferation. The data were analysed to determine the percentage inhibition of lymphocyte proliferation by the test compound. […]
# [2] = test system: tumour necrosis factor-α (TNF-α); assay: Mouse Tumour Necrosis Factor Test (Test B), mouse endotoxin shock model, serum TNF-α by ELISA; assay type: in vivo, BALB/c mice; conditions: Mus musculus; minimum effective oral dose giving significant reduction in serum TNF-α of ≥35%; dosed 2 h before LPS i.p.; ≤ = active at dose given but not tested at lower doses; read-out: MTNF:MED
# Excerpt: Preferred compounds of the present invention are active in an in-vivo test which determines the ability of the compounds to inhibit the release of tumour necrosis factor-α (TNF-α) in a mouse endotoxin shock model (Test B). This model is similar to that described by Zuckerman and Bendele (1989), Infection and Immunity 57 (10): p3009-3013.
# Each compound of formula I was combined with a carrier of a solution of 1.5% v/v sorbitan esters under the trade name Tween 80 and 0.25% v/v cellosize in sterile water (100 µl) and was administered orally to a group of four BALB/c mice. The concentration of compound was such as to provide dosages selected from 100, 30, 10, 3, 1, 0.1 and 0.03 mg/kg. Two hours after such oral administration, lipopolysaccharide (LPS) (E. coli 0127:B8) (100 µg) in sterile water (0.2 ml) was administered intraperitoneally to the test mice.
# A control group of eight BALB/c mice was treated in a similar manner as the test group except that no test compound was included with the carrier.
# One hour after LPS administration the mice were killed and blood was collected by cardiac puncture. The blood was incubated at 20°C for 2 hours and the serum was separated from the clotted blood following centrifugation. Serum tumour necrosis factor-α (TNF-α) levels were assayed by an enzyme-linked immunosorbent assay (ELISA) and the concentration of TNF-α in each of the drug-treated groups was compared with the control group by one-way analysis of variance followed by a multiple t-test.
# The ELISA was carried out by coating a 96-well vinyl assay plate (Costar) overnight at 4°C with 50 µl per well of 2 µg/ml hamster anti-mouse TNF monoclonal antibody in 0.1M sodium hydrogen carbonate buffer at pH 8.2. After washing the plate with phosphate buffered saline (PBS) containing 0.05% v/v sorbitan esters under the trade name Tween 20 (wash buffer), a blocking/dilution buffer (10% sheep serum in PBS containing 0.1% v/v sorbitan esters under the trade name Tween 20 (200 µl)) was aliquoted to each well and incubated at 37°C for 0.5 hours. After aspirating the blocking buffer, the serum samples and pure TNF (as a standard) diluted in blocking/dilution buffer, were added to the wells and incubated at 37°C for 2 hours. After washing with the wash buffer, a polyclonal rabbit anti-mouse TNF-α antibody in blocking/dilution buffer (100 µl of a 1 in 10,000 dilution) was added and incubated for a further 1.5 hours at 37°C. After further washes, anti-rabbit IgG peroxidase conjugate (100 µl of a 1 in 4000 dilution) was added and incubated at 37°C for 0.5 hours. After further washing, the substrate solution (100 µl per well of 0.1 mg/ml 3,3', 5,5'-tetramethylbenzidine dihydrochloride in 0.1M phosphate citrate buffer, pH 5.0, to which 2 µl of 30% hydrogen peroxide per 10 ml was added just before use) was added and the colour allowed to develop. The reaction was stopped by the addition of 1M sulphuric acid (25 µl) and the optical density read in a multichannel spectrophotometer at 450 nm. The mean TNF-α concentration was determined by comparison with the standard curve and the mean TNF-α concentration for each group compared with that produced by the control group. Drug treatments which cause a statistically significant reduction in TNF-α concentration of ≥35% at a single dose at 100 mg/kg or less were considered active.
Compound,IC50 [1] [nM],minimal effective dose [2] [mg/kg]
"c1ccc(OCCN2CCC(CCn3ccnc3)CC2)cc1 [Example 87, 4-[2-(Imidazol-1-yl)ethyl]-1-(2-phenoxyethyl)piperidine]",8000,≤ 100
"C(=Cc1ccccc1)CN1CCC(CCn2ccnc2)CC1 [Example 90, 1-Cinnamyl-4-[2-(imidazol-1-yl)ethyl]-piperidine]",2200,≤ 30
"O=C(CN1CCC(CCn2ccnc2)CC1)Nc1ccc(C(F)(F)F)cc1 [Example 91, 4-[2-(Imidazol-1-yl)ethyl]piperidino-4'-trifluoromethylacetanilide]",100,30
"CC(c1ccc(Cl)cc1)N1CCC(CCn2ccnc2)CC1 (centres unmarked) [Example 93, 1-[1-(4-chlorophenyl)ethyl]-4-[2-(imidazol-1-yl)-ethyl]piperidine]",1100,30
"Cl.Cl.c1ccc(CCCN2CCC(CCn3ccnc3)CC2)cc1 [Example 98, 4-[2-(imidazol-1-yl)ethyl]-1-(3-phenylpropyl)piperidine dihydrochloride]",300,30
"c1ccc(CCCN2CCC(Cn3ccnc3)CC2)cc1 [Example 102, 4-Imidazol-1-ylmethyl-1-(3-phenylpropyl)piperidine]",5200,≤ 100
"CC1CN(CCCc2ccccc2)CCC1CCn1ccnc1 (centres unmarked) [Example 103, 4-[2-(Imidazol-1-yl)ethyl]-3-methyl-1-(3-phenylpropyl)piperidine]",1900,≤ 30
"c1ccc(CCCN2CCC(CCn3ccnc3-c3ccccc3)CC2)cc1 [Example 109, 4-[2-(2-Phenylimidazol-1-yl)ethyl]-1-(3-phenylpropyl)piperidine]",3600,100
"Cc1nc2ccccc2n1CCC1CCN(CCCc2ccccc2)CC1 [Example 112, 2-Methyl-1-{2-[1-(3-phenylpropyl)piperidin-4-yl]ethyl}benzimidazole]",3000,100
"CC(Cn1ccnc1)C1CCN(CCCc2ccccc2)CC1 (centres unmarked) [Example 113, 4-[2-(Imidazol-1-yl)-1-methylethyl]-1-(3-phenylpropyl)piperidine]",300,10
"c1ccc(CCCN2CCC(CCn3cnc4ccccc43)CC2)cc1 [Example 114, 1-{2-[1-(3-Phenylpropyl)piperidin-4-yl]-ethyl}benzimidazole]",4200,30
"Cc1nc(Cl)c(Cl)n1CCC1CCN(CCCc2ccccc2)CC1 [Example 115, 4-[2-(4,5-Dichloro-2-methylimidazol-1-yl)ethyl]-1-(3-phenylpropyl)piperidine]",1200,100
"Cc1ncn(CCC2CCN(CCCc3ccccc3)CC2)c1C [Example 116, 4-[2-(4,5-Dimethylimidazol-1-yl)ethyl]-1-(3-phenylpropyl)piperidine]",2000,30
"Cc1nccn1CCC1CCN(CCCc2ccccc2)CC1 [Example 117, 4-[2-(2-Methylimidazol-1-yl)ethyl]-1-(3-phenylpropyl)piperidine]",200,100
"Cc1ccc(CCCN2CCC(CCn3ccnc3)CC2)cc1 [Example 122, 4-[2-(Imidazol-1-yl)ethyl]-1-[3-(4-methylphenyl)propyl]piperidine]",2800,≤ 30
"Clc1ccc(CCCN2CCC(CCn3ccnc3)CC2)cc1 [Example 123, 1-[3-(4-Chlorophenyl)propyl]-4-[2-(imidazol-1-yl)ethyl]piperidine]",700,≤ 30
"CSc1ccc(CCCN2CCC(CCn3ccnc3)CC2)cc1 [Example 127, 4-[2-(Imidazol-1-yl)ethyl]-1-[3-(4-methylthiophenyl)propyl]piperidine]",1900,30
"c1ccc(CCN2CCC(CCn3ccnc3)CC2)cc1 [Example 128, 4-[2-(Imidazol-1-yl)ethyl]-1-phenethylpiperidine]",2000,≤ 30
"c1ccc(CCCCN2CCC(CCn3ccnc3)CC2)cc1 [Example 129, 4-[2-(Imidazol-1-yl)ethyl]-1-(4-phenylbutyl)piperidine]",2100,30
